Source: US8685977B2, “Chemical compounds” (Pfizer Limited, priority 2010, dated 2014)

molecular target: T1, Nav1.7 (or SCN9A) channel (Homo sapiens, UniProt Q15858); assay: Nav1.7 PatchXpress 7000 automated electrophysiology assay (HEK cells stably expressing hSCN9A); format: cell-based; conditions: voltage-clamped at V1/2 of inactivation, read-out: Nav1.7 EIC50
T1 construct: expressed in transfected cells
Outline: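 Automated whole-cell clamp (PatchXpress) of HEK cells stably expressing hSCN9A, at 22-24 °C, in extracellular buffer at pH 7.4. Cells were held at the measured V1/2 of inactivation, then stepped to 0 mV for 20 ms. Single-concentration % inhibition gave EIC50 = concentration × (100 − %inhibition)/%inhibition, excluding <20% or >80%.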

T1 sequence (Q15858 whole entry): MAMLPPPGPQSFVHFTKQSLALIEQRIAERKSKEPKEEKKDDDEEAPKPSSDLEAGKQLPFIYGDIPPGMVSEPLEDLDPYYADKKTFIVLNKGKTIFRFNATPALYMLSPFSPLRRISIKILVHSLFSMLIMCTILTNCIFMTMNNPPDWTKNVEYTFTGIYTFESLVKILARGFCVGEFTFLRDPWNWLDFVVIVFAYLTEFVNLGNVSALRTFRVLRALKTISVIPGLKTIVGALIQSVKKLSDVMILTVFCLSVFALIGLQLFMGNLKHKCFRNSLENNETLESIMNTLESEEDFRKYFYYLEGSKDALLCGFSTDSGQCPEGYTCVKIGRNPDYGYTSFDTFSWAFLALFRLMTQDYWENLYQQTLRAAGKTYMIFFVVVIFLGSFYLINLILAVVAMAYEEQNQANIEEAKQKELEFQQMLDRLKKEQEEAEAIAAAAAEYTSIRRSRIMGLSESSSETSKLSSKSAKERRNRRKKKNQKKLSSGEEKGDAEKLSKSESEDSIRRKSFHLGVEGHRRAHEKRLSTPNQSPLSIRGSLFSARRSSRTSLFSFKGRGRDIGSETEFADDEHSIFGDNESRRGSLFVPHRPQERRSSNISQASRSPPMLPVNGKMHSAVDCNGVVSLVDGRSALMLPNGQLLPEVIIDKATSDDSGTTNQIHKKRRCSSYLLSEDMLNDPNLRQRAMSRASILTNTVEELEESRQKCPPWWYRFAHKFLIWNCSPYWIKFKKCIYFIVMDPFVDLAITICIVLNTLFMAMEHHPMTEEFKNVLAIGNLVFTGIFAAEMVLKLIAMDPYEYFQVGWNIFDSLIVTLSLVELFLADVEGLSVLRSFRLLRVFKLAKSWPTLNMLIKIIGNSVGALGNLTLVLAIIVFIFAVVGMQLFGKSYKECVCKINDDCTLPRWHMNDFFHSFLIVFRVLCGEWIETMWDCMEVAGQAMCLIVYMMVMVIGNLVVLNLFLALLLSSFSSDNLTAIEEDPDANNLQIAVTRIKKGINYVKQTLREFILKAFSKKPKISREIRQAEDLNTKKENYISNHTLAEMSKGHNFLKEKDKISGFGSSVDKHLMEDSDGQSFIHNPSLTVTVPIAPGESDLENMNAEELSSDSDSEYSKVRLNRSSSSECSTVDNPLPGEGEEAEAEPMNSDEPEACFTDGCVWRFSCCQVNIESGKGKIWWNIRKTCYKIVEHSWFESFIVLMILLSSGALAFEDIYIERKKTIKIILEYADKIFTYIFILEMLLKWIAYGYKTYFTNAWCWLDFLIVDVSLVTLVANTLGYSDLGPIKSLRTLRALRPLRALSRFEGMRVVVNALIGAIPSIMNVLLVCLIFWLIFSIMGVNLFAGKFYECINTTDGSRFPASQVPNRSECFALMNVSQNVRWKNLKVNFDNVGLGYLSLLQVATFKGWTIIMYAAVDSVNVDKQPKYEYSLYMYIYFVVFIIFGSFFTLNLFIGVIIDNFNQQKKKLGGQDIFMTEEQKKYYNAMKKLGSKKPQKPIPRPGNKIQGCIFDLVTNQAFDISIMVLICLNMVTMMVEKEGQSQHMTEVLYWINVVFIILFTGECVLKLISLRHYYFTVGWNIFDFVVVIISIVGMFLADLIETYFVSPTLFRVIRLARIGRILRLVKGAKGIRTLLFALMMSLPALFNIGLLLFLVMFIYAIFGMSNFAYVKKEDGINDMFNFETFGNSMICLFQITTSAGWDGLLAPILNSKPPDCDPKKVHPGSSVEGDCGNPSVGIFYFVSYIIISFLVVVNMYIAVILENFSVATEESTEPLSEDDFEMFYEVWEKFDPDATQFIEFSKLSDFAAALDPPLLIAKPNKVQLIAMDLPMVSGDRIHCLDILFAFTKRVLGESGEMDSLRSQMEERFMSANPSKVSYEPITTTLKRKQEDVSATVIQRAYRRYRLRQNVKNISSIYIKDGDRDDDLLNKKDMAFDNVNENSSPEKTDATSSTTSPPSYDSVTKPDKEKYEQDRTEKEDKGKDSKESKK

IC50 [µM] | Compound
32 | Cc1ccc(Cl)c(Oc2ccc(C(=O)NS(C)(=O)=O)cc2)c1 [Example 180, 4-(2-chloro-5-methylphenoxy)-N-(methylsulfonyl)benzamide]
5.6 | CS(=O)(=O)NC(=O)c1ccc(Sc2cccc(OC(F)(F)F)c2)cc1 [Example 318, N-(Methylsulfonyl)-4-{[3-(trifluoromethoxy)phenyl]sulfanyl}benzamide]
7 | CS(=O)(=O)NC(=O)c1ccc(Oc2cccc(C#N)c2)c(Cl)c1 [Example 264, 3-chloro-4-(3-cyanophenoxy)-N-(methylsulfonyl)benzamide]
9.3 | COc1cc(Oc2ccc(Cl)cc2OC(F)(F)F)ccc1C(=O)NS(C)(=O)=O [Example 39, 4-[4-chloro-2-(trifluoromethoxy)phenoxy]-2-methoxy-N-(methylsulfonyl)benzamide]
1.3 | CS(=O)(=O)NC(=O)c1ccc(Oc2ccc(-c3ccccc3)cc2)cc1 [Example 245, 4-(biphenyl-4-yloxy)-N-(methylsulfonyl)benzamide]
7.6 | Cc1cc(Oc2ccc(C(=O)NS(C)(=O)=O)cc2)ccc1F [Example 199, 4-(4-fluoro-3-methylphenoxy)-N-(methylsulfonyl)benzamide]
16 | Cc1ccc(Oc2ccc(C(=O)NS(C)(=O)=O)cc2)c(C)c1 [Example 172, 4-(2,4-dimethylphenoxy)-N-(methylsulfonyl)benzamide]
6.9 | CS(=O)(=O)NC(=O)c1ccc(Oc2cccc(Cl)c2)cc1 [Example 202, 4-(3-chlorophenoxy)-N-(methylsulfonyl)benzamide]
22 | CS(=O)(=O)NC(=O)c1ccc(Oc2cccc(F)c2F)cc1 [Example 195, 4-(2,3-difluorophenoxy)-N-(methylsulfonyl)benzamide]
2.1 | CS(=O)(=O)NC(=O)c1ccc(Oc2cccc3ccccc23)c(Cl)c1 [Example 258, 3-chloro-N-(methylsulfonyl)-4-(1-naphthyloxy)benzamide]
2.5 | CCOc1ccc(Oc2ccc(C(=O)NS(C)(=O)=O)cc2)cc1 [Example 253, 4-(4-ethoxyphenoxy)-N-(methylsulfonyl)benzamide]
6.4 | CCS(=O)(=O)NC(=O)c1ccc(Oc2ccc(F)cc2)cc1 [Example 305, N-(ethylsulfonyl)-4-(4-fluorophenoxy)benzamide]
> 3 | CS(=O)(=O)NC(=O)c1cc(F)c(Oc2cccc(Cl)c2)cc1F [Example 156, 4-(3-chlorophenoxy)-2,5-difluoro-N-(methylsulfonyl)benzamide]
12 | Cc1ccc(Oc2ccc(C(=O)NS(C)(=O)=O)cc2)cc1C [Example 167, 4-(3,4-dimethylphenoxy)-N-(methylsulfonyl)benzamide]
0.097 | CS(=O)(=O)NC(=O)c1cc(Cl)c(Oc2ccc(Cl)cc2)cc1F [Example 295, 5-chloro-4-(4-chlorophenoxy)-2-fluoro-N-(methylsulfonyl)benzamide]
8.7 | Cc1ccc(Oc2ccc(C(=O)NS(C)(=O)=O)cc2)cc1 [Example 304, 4-(4-methylphenoxy)-N-(methylsulfonyl)benzamide]
1.2 | CS(=O)(=O)NC(=O)c1ccc(Oc2ccccc2F)c(Cl)c1 [Example 282, 3-chloro-4-(2-fluorophenoxy)-N-(methylsulfonyl)benzamide]
17 | CS(=O)(=O)NC(=O)c1ccc(Oc2cc(F)ccc2F)cc1 [Example 166, 4-(2,5-difluorophenoxy)-N-(methylsulfonyl)benzamide]
> 10 | COc1cc(Cl)ccc1Oc1cc(OC)c(C(=O)NS(C)(=O)=O)cc1F [Example 61, 4-(4-chloro-2-methoxyphenoxy)-5-fluoro-2-methoxy-N-(methylsulfonyl)benzamide]
0.89 | CS(=O)(=O)NC(=O)c1ccc(Oc2ccc(Cl)c(C(F)(F)F)c2)c(C#N)c1 [Example 62, 4-[4-chloro-3-(trifluoromethyl)phenoxy]-3-cyano-N-(methylsulfonyl)benzamide]
